# Data published in US10370718B2, “Use of HLA genetic status to assess or select treatment of celiac disease” (ImmusanT, Inc., priority 2014, dated 2019).
# Square brackets hold non-standard residues; d marks the D form. pGlu = O=C1CC[C@@H](C(=O)O)N1
# System: circulating cytokines
# Experiment: Circulating cytokines/chemokines in plasma after dosing (MAGPIX multiplex platform)
# Format: in vivo, human
# Conditions: dose of 150 micrograms; same dose in both genotype groups
# Procedure: 3 cohorts of subjects with HLA-DQ2.5+(heterozygous or homozygous) biopsy-proven Celiac disease on a gluten-free diet for at least 1 year were included in the study. The first cohort (Cohort 1) contained 12 subjects who were dosed with 150 mcg of a gluten peptide composition (an equimolar composition in sodium chloride 0.9% USP of 3 peptides: ELQPFPQPELPYPQPQ (SEQ ID NO: 9), EQPFPQPEQPFPWQP (SEQ ID NO: 10), and EPEQPIPEQPQPYPQQ (SEQ ID NO: 11), each peptide comprising an N-terminal pyroglutamate and C-terminal amidated amino acid) or a placebo (sodium chloride 0.9% USP) intradermally, twice a week for 8 weeks total. The second cohort (Cohort 2) contained 13 subjects who were dosed with 300 mcg of the gluten peptide composition or the placebo intradermally, twice a week for 8 weeks total. […] Both Cohorts 1 and 2 received an oral gluten challenge and were assessed for gamma-interferon (gIFN) release and then returned to baseline prior to starting the treatment regimen. […]
# The progress of each subject before, during and after the trial was assessed using multiple tests including serology (tTG-IgA, DGP-IgG, DGP-IgA, and EMA-IgA), histology, and IFNg whole blood release assay, and cytokine/chemokines in plasma (measured by MAGPIX® multiplex platform). Plasma cytokines and chemokines were measured at several timepoints pre and post first and last dose. […]
substance,measurement,value
"gluten peptide composition: equimolar composition in sodium chloride 0.9% USP of 3 peptides (SEQ ID NO: 9, 10, 11), each with N-terminal pyroglutamate and C-terminal amidated amino acid (chain 1 [pGlu]LQPFPQPELPYPQPQ-NH2; chain 2 [pGlu]QPFPQPEQPFPWQP-NH2; chain 3 [pGlu]PEQPIPEQPQPYPQQ-NH2)","levels of circulating cytokines in response to administration, HLA-DQ2.5 homozygous subjects compared to subjects with other genotypes",generally increased levels of circulating cytokines
